Legend:
[1] = test system: SNU-16 human gastric cancer cell line xenograft; assay: Human gastric tumor (HGS) xenograft model; assay type: in vivo, mice; details: day 42 after inoculation, 20/kg of compound (vehicle group 645)
Protocol: Human Gastric Tumor Model:
SNU-16 human gastric cancer cell line can be used to generate a xenograft model to determine the effects of a FGFR inhibitor of the present disclosure (test compound) as a single agent treatment to target FGFR-dependent tumor growth. SNU-16 cells are grown in tissue culture as described in Example 2 above. For tumor inoculation, approximately 1×10^7 cells are mixed with Matrigel (1:1) and are implanted into the rear flank of immuno compromised Balb/c nu/nu mice. Tumor-bearing mice are monitored twice weekly in two dimensions using a caliper and the volume expressed in mm^3 using the formula: V=0.5 a×b^2 where a and b are the long and short diameters of the tumor respectively. Once tumor volume reaches a mean average of 175 mm^3 mice are randomized into 3 groups (n=8-10 per group) receiving either vehicle control (0.5% methyl cellulose w/w) or the test compound by oral gavage. Dosing continues for 5-21 days with tumor volumes measured daily or every other day. It is expected that tumor growth will be inhibited in animals treated with the test compound. […] Inhibition of FGFR pathway can be assessed by detection of FGFR auto phosphorylation activity. […] Tumor samples are collected at 8 h or 12 h post the last dosing and FGFR auto phosphorylation activity is determined. […]

SNU-16 cells = assay: Inhibition of FGFR2-dependent cell growth (Cell-titer Glo); assay type: cell-based; details: Homo sapiens, SNU-16, 72 h, 72 hrs incubation, cell viability, read-out: SNU16 IC50 values
Protocol: The cell-based effects of FGFR inhibitors were determined by measuring inhibition of FGFR-dependent cell line growth. The cell lines SNU-16 was used for these assays. […] Percent inhibition of cell growth was calculated as a percentage of untreated cell viability. The percent inhibition was plotted as a function of log compound concentration. The IC50 was then calculated for each compound using Prism software from GraphPad.

Row | SMILES | tumor size [1] | IC50 (SNU-16 cells)
1 | C=CC(=O)N1CCN(CCCn2c(=O)c(-c3c(Cl)c(OC)cc(OC)c3Cl)cc3cnc(NC)nc32)CC1 [8-(3-(4-acryloylpiperazin-1-yl)propyl)-6-(2,6-dichloro-3,5-dimethoxyphenyl)-2-(methylamino)pyrido[2,3-d]pyrimidin-7(8H)-one] | 55 mm3 | 
2 | CNc1ncc2cc(-c3cc(OC)cc(OC)c3Cl)c(=O)n(CCc3ccc(NC(=O)C(C#N)=CC(C)(C)N(C)C4COC4)cc3)c2n1 [Cpd 29 (table 2), N-(4-(2-(6-(2-chloro-3,5-dimethoxyphenyl)-2-(methylamino)-7-oxopyrido[2,3-d]pyrimidin-8(7H)-yl)ethyl)phenyl)-2-cyano-4-methyl-4-(methyl(oxetan-3-yl)amino)pent-2-enamide] |  | 1.4 nM
3 | CNc1ncc2cc(-c3cc(OC)cc(OC)c3Cl)c(=O)n(CCCc3ccc(C=C(C#N)C(=O)NC(C)(C)C)cc3)c2n1 [Cpd 75 (table 2), N-(tert-butyl)-3-(4-(3-(6-(2-chloro-3,5-dimethoxyphenyl)-2-(methylamino)-7-oxopyrido[2,3-d]pyrimidin-8(7H)-yl)propyl)phenyl)-2-cyanoacrylamide] |  | 87.2 nM
4 | CNc1ncc2cc(-c3cc(OC)cc(OC)c3Cl)c(=O)n(CCN3CCN(C(=O)C(C#N)=CC(C)(C)C)CC3)c2n1 [Cpd 2 (table 1), 2-(4-(2-(6-(2-chloro-3,5-dimethoxyphenyl)-2-(methylamino)-7-oxopyrido[2,3-d]pyrimidin-8(7H)-yl)ethyl)piperazine-1-carbonyl)-4,4-dimethylpent-2-enenitrile] |  | 50.8 nM
